Measured values taken from paper PMC11862924, “Phenylpyrazoles as Inhibitors of the m^6A RNA-Binding Protein YTHDF2” (JACS Au, 2025).

Key:
YTHDF1 = target: T1, YTHDF1 (Homo sapiens, UniProt Q9BYJ9); set-up: method as in PMID 36268123; conditions: read-out: EC50, YTHDF1, tryptophan quenching assay; cited from earlier work
T1 construct: Plasmids of the YTH domain of YTHDF1 (residues 375–552); made in house; host or cells: Escherichia coli BL21(DE3); plasmid from the Zhou lab (Boston College)
T1 sequence (Q9BYJ9 375-552): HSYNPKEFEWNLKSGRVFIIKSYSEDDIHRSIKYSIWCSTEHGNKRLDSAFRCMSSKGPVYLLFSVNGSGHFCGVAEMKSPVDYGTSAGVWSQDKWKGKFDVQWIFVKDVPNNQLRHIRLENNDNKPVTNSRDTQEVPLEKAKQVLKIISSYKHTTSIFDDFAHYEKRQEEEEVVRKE

YTHDF2 [1] = target: T2, YTHDF2 (Homo sapiens, UniProt Q9Y5A9); set-up: method as in PMID 36268123; conditions: read-out: EC50, YTHDF2, tryptophan quenching assay; cited from earlier work
T2 construct: A YTHDF2 YTH domain construct (residues 383–553) was subcloned to a pOPIN plasmid; made in house; host or cells: Escherichia coli BL21(DE3)
T2 sequence (Q9Y5A9 383-553): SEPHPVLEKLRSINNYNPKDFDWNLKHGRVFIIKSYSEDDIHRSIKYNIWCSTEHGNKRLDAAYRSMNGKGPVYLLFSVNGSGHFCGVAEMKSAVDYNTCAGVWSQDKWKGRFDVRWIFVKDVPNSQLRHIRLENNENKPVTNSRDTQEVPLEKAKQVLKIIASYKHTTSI

METTL3 = tested on: METTL3; set-up: method as in PMID 33902106; conditions: cited from earlier work
YTHDF2 [2] = target: T2, YTHDF2; set-up: method as in PMID 37236197; conditions: read-out: IC50, YTHDF2, AlphaScreen; cited from earlier work
HCT116 = assay: CCK-8 proliferation assay, HCT116; assay type: cell-based; conditions: Homo sapiens, HCT-116; CCK-8 kit assay, triplicates, 72 h; read-out: Anti-proliferation activity against cancer cells (IC50), HCT116
Protocol: (§1) The JAR, K562, HCT116, and MOLM13 cells were seeded in 96-well plates (3000 cells/well). After being cultured overnight, compounds were added together with the DMSO treatment (0.1%) as a control. After 72 h, CCK-8 solution (Vazyme, A311) was added, and the cells were incubated at 37 °C for 4 h. The absorbance was measured at 450 nm using a plate reader (TECAN Spark).

K562 = assay: CCK-8 proliferation assay, K562; assay type: cell-based; conditions: Homo sapiens, CCK-8 kit assay, triplicates, 72 h, read-out: Anti-proliferation activity against cancer cells (IC50), K562
Protocol: as §1

JAR = assay: CCK-8 proliferation assay, JAR; assay type: cell-based; conditions: Homo sapiens; CCK-8 kit assay, triplicates, 72 h; read-out: Anti-proliferation activity against cancer cells (IC50), JAR
Protocol: as §1

[3] = target: T3, YTHDF2 (residues 383–553) (Homo sapiens, UniProt Q9Y5A9); assay: Fluorescence polarization (FP) assay, YTHDF2–m6A RNA interaction; assay type: binding; conditions: 100 μM compound; YTHDF2 (residues 383–553, 20 nM), FAM-labeled m6A RNA probe 5 nM; average ± SD
T3 construct: A YTHDF2 YTH domain construct (residues 383–553) was subcloned to a pOPIN plasmid; made in house; host or cells: Escherichia coli BL21(DE3)
T3 sequence (Q9Y5A9 383-553): T2 sequence (Q9Y5A9 383-553)
Protocol: The FP assay was performed in 384-well black plates (Corning no. 4514) with a total reaction volume of 15 μL. The final concentrations of protein (YTHDF2) and RNA were […], respectively, in a buffer containing 20 mM HEPES/KOH pH 7.5, 50 mM NaCl, 0.005% Tween 20, and 1 mM GSH (DTT). Compounds were incubated with protein, added FAM-m^6A RNA probe ([…](m6)ACUGUG) (purchased from IDT), and incubated at 4 °C for 30 min. The fluorescence polarization was measured using a plate reader (TECAN Spark) under an excitation wavelength of 485 nm and an emission wavelength of 535 nm with a bandwidth of 20 nm. […] The data were determined using GraphPad Prism 9.

O=c1c2ccccc2[se]n1-c1ccccc1 [Ebselen]
EC50 (YTHDF1): 1.6 µM | EC50 (YTHDF2 [1]): 1.7 µM

O=C(NCc1ccc2cc(CNCC3CCC3)[nH]c2c1)c1cc(=O)n2ccccc2n1 [STC-15]
inhibitory activity against METTL3 (in words) (METTL3): nanomolar inhibitory activity

N#C/C(=C\c1ccc(-c2cccc(O)c2)s1)C(N)=O [DC-Y13–27, reference compound]
IC50 (YTHDF2 [2]): 21.8 µM | IC50 (HCT116): 5.8 ± 0.9 µM | IC50 (K562): 24.5 ± 3.7 µM | IC50 (JAR): 33.3 ± 5.6 µM | inhibition at 100 µM [3]: 14.2%
